Consider two molecules from US20220370326A1, “TOPICAL COMPOSITIONS AND METHODS OF USING SAME AGAINST MITOCHONDRIAL FRAGMENTATION” (Conopco, Inc., d/b/a UNILEVER, priority 2019, published 2022).

The test system of the test is human keratinocytes. The test can be described thus: Mitochondrial fragmentation in keratinocytes - UV study (TPEF imaging of NADH, Fourier PSD analysis). It is filed as cell-based. Particulars: B3 10 mM, SAMe 500 uM; for Effect on mitochondrial fragmentation in Non UV-exposed keratinocytes (in words) / Effect on UV-induced mitochondrial fragmentation (in words): significance P </= 0.05; for Mitochondrial Fragmentation, (+) UV (4 days) / Mitochondrial Fragmentation, (−) UV (3 days): human keratinocytes, higher value = less protection; for Mitochondrial Fragmentation, (+) UV (4 days): 4 days of daily UV exposure (4 J/cm^2 UVA+UVB, 14 min); for Mitochondrial Fragmentation, (−) UV (3 days): not UV-exposed, 3 days of treatment; for Effect on UV-induced mitochondrial fragmentation (in words): keratinocytes, UV exposure for 4 days. The method, then: Test compounds (B3 and SAMe) were purchased from Sigma (St. Loius, MO). Cell culture growth media (Epilife media with calcium (Cat#MEPI500CA) and Epilife media supplement HKGS 100X (Cat#S-001-5)) was purchased from Thermofisher (Waltham, Mass.). Cryopreserved human keratinocytes cells (˜1×10^6 cells) were plated on 12-well glass bottom plates at a confluence of ˜15%. The cells were suspended in primary keratinocyte growth media (Epilife media with calcium) and incubated @ 37° C. for 1d (Day 0). At Day 1, cells began treatment with supplemented primary keratinocyte growth media (Epilife media with calcium supplemented with HKGS 100X; […]) without test compound (Control sample) or containing test compounds B3 (10 mM), SAMe (500 μM) or B3 (10 mM)+SAMe (500 uM). Cell treatment (25m1 media with or without test compounds as above) continued daily for 2 additional days (Days 2 and 3). On Day 4, cells were subjected to UV treatment by replacing media with PBS, exposing cells to UV light (4 J/cm^2 of UVA+UVB) for 14 min and feeding cells with media with or without corresponding test compounds as defined above. UV treatments continued daily for 3 additional days (Days 5, 6 and 7). Image acquisition and analysis on all wells to assess mitochondrial fragmentation was conducted on Day 1, 3, 5 and 8.
For two-photon excited fluorescence (TPEF) imaging, cell cultures were placed in microscope-compatible micro-incubator system, which maintained 37° C. within a humidified environment throughout the imaging session. HEPES buffering agent (Sigma) was added to cell cultures before imaging, which maintained the pH of cell cultures throughout the imaging session. Images were obtained using a Leica TCS SP8 confocal microscope equipped with a tunable (680-1300 nm) titanium-sapphire laser (InSight Deep See; Spectra Physics; Mountain View, Calif.). Images (1024×1024 pixels; 386×386 μm) were acquired using water-immersion 25x objective (NA 0.95; 2.4 mm working distance), with simultaneous collection by two non-descanned photomultiplier tube (PMT) detectors using a filter cube containing filters from Chroma (Bellows Falls, VT), including a 700 nm short pass filter (ET700SP-2P) and a 495 nm dichroic mirror (495DCXR). To isolate NADH fluorescence, a 460(±20) nm emission filter (Chroma, ET460/40M-2P), corresponding to the NADH emission peak, was placed before one of the non-descanned detectors. NADH fluorescence images were acquired from this 460 nm channel using 755 nm excitation. FAD fluorescence was isolated using a 525(±25) nm emission filter (Chroma, ET525/50M-2P) for the other non-descanned detector and 860 nm excitation. The two-photon action cross section of NADH decreases by several orders of magnitude between 755 nm and 860 nm excitation, enabling an efficient isolation of FAD at longer wavelengths. The fluorescence lifetime images (512×512 pixels; 386×386 μm) corresponding to NADH were acquired under the same excitation and emission settings, using SymPho software. PMT gain was adjusted for each image to maximize contrast while preventing a saturated pixel intensity value. The PMT gain and laser power were recorded for each image and used to normalize fluorescence intensity.
To assess mitochondrial fragmentation, a previously-established Fourier transform technique was used to obtain power spectral density (PSD) curves from each image. […]

SMILES strings stand for the structures. Marks after values point to notes of the source that are not given here.

Take `NC(=O)c1cccnc1` [B3, Nicotinamide]: the “Effect on mitochondrial fragmentation in Non UV-exposed keratinocytes (in words)” value was “does not significantly reduce mitochondrial fragmentation”; the “Mitochondrial Fragmentation, (+) UV (4 days)” value is recorded as 1.34 ^d; the “Mitochondrial Fragmentation, (−) UV (3 days)” value stood at 1.18; the “Effect on UV-induced mitochondrial fragmentation (in words)” value is on record as “effective at reducing this UV-induced effect down to control levels”.
As for `C[S+](CC[C@H](N)C(=O)[O-])C[C@H]1O[C@@H](n2cnc3c(N)ncnc32)[C@H](O)[C@@H]1O` (stereo partly drawn) [SAMe, S-adenosyl-L-methionine], the “Effect on mitochondrial fragmentation in Non UV-exposed keratinocytes (in words)” value is “does not significantly reduce mitochondrial fragmentation”; the “Mitochondrial Fragmentation, (+) UV (4 days)” value was 1.58 ^c,e; the “Mitochondrial Fragmentation, (−) UV (3 days)” value is 1.30; the “Effect on UV-induced mitochondrial fragmentation (in words)” value is listed as “increases mitochondrial fragmentation beyond UV-exposed levels”.
